Reference: patent publication US6706663B2, “Herbicidal 3-heterocyclic substituted benzisothiazole and benzisoxazole compounds” (Wyeth, priority 2000, dated 2004)

Tests used:
[1] = test system: ABUTH (Abutilon theophrasti); assay: Postemergence herbicidal evaluation; format: in vivo, Medic.
Outline: (§1)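 Seedlings grown for about two weeks were sprayed postemergence and then kept under standard greenhouse care. Injury was rated visually 4–5 weeks after treatment on a 0–9 scale against untreated controls, and ratings from repeat tests were averaged.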

[2] = test system: CASOB (Cassia obtusifolia); assay: Preemergence herbicidal evaluation; format: in vivo, L.; conditions: preemergence, rated 4-5 weeks after treatment
Outline: (§2)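 Seeds mixed with potting soil were planted atop about one inch of soil, then sprayed with test compound in aqueous acetone. Cups were kept in the greenhouse and rated visually 4–5 weeks after treatment on a 0–9 scale against untreated control.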

[3] = test system: AMBEL (Ambrosia artemisifolia); assay: Preemergence herbicidal evaluation; format: in vivo, L.; conditions: preemergence, rated 4-5 weeks after treatment
Outline: as §2

[4] = test system: CHEAL (Chenopodium album); assay: Preemergence herbicidal evaluation; format: in vivo, L.; conditions: preemergence, rated 4-5 weeks after treatment
Outline: as §2

ORYSAT (Rice, Tebonnet) [5] = assay: Preemergence herbicidal evaluation; format: in vivo, Oryza sativa, (L.) Tebonnet; conditions: preemergence, rated 4-5 weeks after treatment
[6] = test system: TRZAWR (Wheat, Winter, cv Riband); assay: Preemergence herbicidal evaluation; format: in vivo, Triticum aestivum; conditions: preemergence, rated 4-5 weeks after treatment
Outline: as §2

[7] = test system: ABUTH (Abutilon theophrasti); assay: Preemergence herbicidal evaluation; format: in vivo, Medic.; conditions: preemergence, rated 4-5 weeks after treatment
ZEAMX (Corn, Field) = assay: Postemergence herbicidal evaluation; format: in vivo, Zea mays, L.
Outline: as §1

[8] = test system: TRZAWR (Wheat, Winter, cv Riband); assay: Postemergence herbicidal evaluation; format: in vivo, Triticum aestivum
Outline: as §1

ORYSAT (Rice, Tebonnet) [9] = assay: Flooded paddy, post-transplant rice tolerance; format: in vivo, Oryza sativa, (L.) Tebonnet; conditions: flooded paddy, post-transplant rice, rated 3-4 weeks after treatment, 0-9 rating scale
Outline: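 Scores (0-9) reflect visual injury relative to untreated plants in flooded silt loam. Each pot held two transplanted ten-day-old seedlings under 1.5 to 3 cm standing water in the greenhouse.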

[10] = test system: ECHCG (Echinochloa crus-galli); assay: Postemergence herbicidal evaluation; format: in vivo, (L.) Beau
Outline: as §1

[11] = test system: ECHORC (Echinochloa oryzoides); assay: Flooded paddy, preemergence weed control; format: in vivo, Echinochloa oryzoides (Ard.) Fritsch.; conditions: rated 3-4 weeks after treatment, 0-9 rating scale
Outline: (§3)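 Plants were established from seed or propagating organs in flooded silt loam, with the water surface held 1.5 to 3 cm above the soil for the entire experiment. Injury was assessed visually against a control and given a 0-9 score.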

ORYSAT (Rice, Tebonnet) [12] = assay: Postemergence herbicidal evaluation; format: in vivo, Oryza sativa, (L.) Tebonnet
Outline: as §1

[13] = test system: CYPSE (Cyperus serotinus); assay: Flooded paddy, preemergence weed control; format: in vivo, Rottb.; conditions: rated 3-4 weeks after treatment, 0-9 rating scale
Outline: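 Seeds or propagules were planted 0.5 cm deep in silt loam and flooded to 1.5–3 cm. Compounds in 50/50 v/v aqueous/acetone were pipetted into the flood water at about 0.0080 to 0.1250 kg/ha. After 3–4 weeks in the greenhouse, effect was rated visually on a 0–9 scale versus untreated control.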

[14] = test system: CASOB (Cassia obtusifolia); assay: Postemergence herbicidal evaluation; format: in vivo, L.
Outline: as §1

[15] = test system: AMBEL (Ambrosia artemisifolia); assay: Postemergence herbicidal evaluation; format: in vivo, L.
Outline: as §1

[16] = test system: CHEAL (Chenopodium album); assay: Postemergence herbicidal evaluation; format: in vivo, L.
Outline: as §1

[17] = test system: IPOHE (Ipomoea hederacea); assay: Postemergence herbicidal evaluation; format: in vivo, (L.) Jacq.
Outline: as §1

[18] = test system: SAGPY (Sagittaria pygmaea); assay: Flooded paddy, preemergence weed control; format: in vivo, L.; conditions: rated 3-4 weeks after treatment, 0-9 rating scale
Outline: as §3

COC(=O)C(C)Oc1ccsc1-c1nsc2ccc(-n3c(=O)cc(C(F)(F)F)n(C)c3=O)cc12 (centres unmarked) [Compound 23, methyl 2-[(2-[5-[3,6-dihydro-3-methyl-2,6-dioxo-4-(trifluoromethyl)-1(2H)-pyrimidinyl]-1,2-benzisothiazol-3-yl]-3-thienyl]oxy]propionate]
6.5: Postemergence herbicidal rating, ZEAMX (ZEAMX (Corn, Field); rate 0.0620 kg/ha)
0.0: CASOB preemergence herbicidal rating ([2]; Rate 0.0620 kg/ha) | AMBEL preemergence herbicidal rating ([3]; Rate 0.0620 kg/ha) | CHEAL preemergence herbicidal rating ([4]; Rate 0.1250 kg/ha) | ORYSAT preemergence herbicidal rating (ORYSAT (Rice, Tebonnet) [5]; Rate 0.0620 kg/ha) | ORYSAT preemergence herbicidal rating (ORYSAT (Rice, Tebonnet) [5]; Rate 0.1250 kg/ha) | ORYSAT preemergence herbicidal rating (ORYSAT (Rice, Tebonnet) [5]; Rate 0.2500 kg/ha) | TRZAWR preemergence herbicidal rating ([6]; Rate 0.0620 kg/ha) | TRZAWR preemergence herbicidal rating ([6]; Rate 0.1250 kg/ha) | TRZAWR preemergence herbicidal rating ([6]; Rate 0.2500 kg/ha) | ABUTH preemergence herbicidal rating ([7]; Rate 0.0620 kg/ha) | ABUTH preemergence herbicidal rating ([7]; Rate 0.1250 kg/ha) | herbicidal rating, ORYSAT (rice tolerance) (ORYSAT (Rice, Tebonnet) [9]; rate 0.0320 kg/ha) | Postemergence herbicidal rating, ECHCG ([10]; rate 0.0320 kg/ha) | herbicidal rating, ECHORC ([11]; rate 0.0320 kg/ha) | herbicidal rating, CYPSE ([13]; rate 0.0320 kg/ha) | Postemergence herbicidal rating, CASOB ([14]; rate 0.0320 kg/ha) | Postemergence herbicidal rating, CASOB ([14]; rate 0.0620 kg/ha)
1.0: CASOB preemergence herbicidal rating ([2]; Rate 0.1250 kg/ha) | ABUTH preemergence herbicidal rating ([7]; Rate 0.2500 kg/ha) | Postemergence herbicidal rating, ECHCG ([10]; rate 0.0620 kg/ha)
3.5: Postemergence herbicidal rating, TRZAWR ([8]; rate 0.0620 kg/ha) | Postemergence herbicidal rating, ORYSAT (ORYSAT (Rice, Tebonnet) [12]; rate 0.0620 kg/ha)
3.0: herbicidal rating, ORYSAT (rice tolerance) (ORYSAT (Rice, Tebonnet) [9]; rate 0.1250 kg/ha) | herbicidal rating, ECHORC ([11]; rate 0.1250 kg/ha)
6.0: CASOB preemergence herbicidal rating ([2]; Rate 0.2500 kg/ha) | Postemergence herbicidal rating, AMBEL ([15]; rate 0.0620 kg/ha) | Postemergence herbicidal rating, CHEAL ([16]; rate 0.1250 kg/ha) | Postemergence herbicidal rating, IPOHE ([17]; rate 0.0320 kg/ha)
4.0: CHEAL preemergence herbicidal rating ([4]; Rate 0.2500 kg/ha) | Postemergence herbicidal rating, CHEAL ([16]; rate 0.0620 kg/ha)
2.5: Postemergence herbicidal rating, TRZAWR ([8]; rate 0.0320 kg/ha) | Postemergence herbicidal rating, ORYSAT (ORYSAT (Rice, Tebonnet) [12]; rate 0.0320 kg/ha)
7.0: Postemergence herbicidal rating, ZEAMX (ZEAMX (Corn, Field); rate 0.1250 kg/ha)
9.0: Postemergence herbicidal rating, ABUTH ([1]; rate 0.0320 kg/ha) | Postemergence herbicidal rating, ABUTH ([1]; rate 0.0620 kg/ha) | Postemergence herbicidal rating, ABUTH ([1]; rate 0.1250 kg/ha) | AMBEL preemergence herbicidal rating ([3]; Rate 0.1250 kg/ha) | AMBEL preemergence herbicidal rating ([3]; Rate 0.2500 kg/ha) | CHEAL preemergence herbicidal rating ([4]; Rate 0.0620 kg/ha) | herbicidal rating, CYPSE ([13]; rate 0.1250 kg/ha) | Postemergence herbicidal rating, AMBEL ([15]; rate 0.1250 kg/ha) | Postemergence herbicidal rating, IPOHE ([17]; rate 0.1250 kg/ha)
2.0: Postemergence herbicidal rating, CASOB ([14]; rate 0.1250 kg/ha) | Postemergence herbicidal rating, AMBEL ([15]; rate 0.0320 kg/ha) | Postemergence herbicidal rating, CHEAL ([16]; rate 0.0320 kg/ha)
5.0: Postemergence herbicidal rating, ZEAMX (ZEAMX (Corn, Field); rate 0.0320 kg/ha) | Postemergence herbicidal rating, TRZAWR ([8]; rate 0.1250 kg/ha) | Postemergence herbicidal rating, ECHCG ([10]; rate 0.1250 kg/ha) | Postemergence herbicidal rating, ORYSAT (ORYSAT (Rice, Tebonnet) [12]; rate 0.1250 kg/ha) | Postemergence herbicidal rating, IPOHE ([17]; rate 0.0620 kg/ha)

Cc1ccn(-c2nsc3ccc(-n4c(=O)cc(C(F)(F)F)n(C)c4=O)cc23)n1 [Compound 38, 1-methyl-3-[3-(3-methylpyrazol-1-yl)-1,2-benzisothiazol-5-yl]-6-(trifluoromethl)uracil]
4.5: herbicidal rating, SAGPY ([18]; rate 0.0320 kg/ha)
3.5: Postemergence herbicidal rating, TRZAWR ([8]; rate 0.0320 kg/ha) | Postemergence herbicidal rating, ORYSAT (ORYSAT (Rice, Tebonnet) [12]; rate 0.0620 kg/ha)
1.0: Postemergence herbicidal rating, CASOB ([14]; rate 0.0620 kg/ha)
3.0: AMBEL preemergence herbicidal rating ([3]; Rate 0.1250 kg/ha) | TRZAWR preemergence herbicidal rating ([6]; Rate 0.0620 kg/ha) | Postemergence herbicidal rating, ECHCG ([10]; rate 0.0620 kg/ha) | Postemergence herbicidal rating, CHEAL ([16]; rate 0.0620 kg/ha)
6.0: ABUTH preemergence herbicidal rating ([7]; Rate 0.2500 kg/ha)
9.0: Postemergence herbicidal rating, ABUTH ([1]; rate 0.0320 kg/ha) | Postemergence herbicidal rating, ABUTH ([1]; rate 0.0620 kg/ha) | herbicidal rating, SAGPY ([18]; rate 0.1250 kg/ha) | CHEAL preemergence herbicidal rating ([4]; Rate 0.0620 kg/ha) | CHEAL preemergence herbicidal rating ([4]; Rate 0.1250 kg/ha) | CHEAL preemergence herbicidal rating ([4]; Rate 0.2500 kg/ha) | herbicidal rating, ECHORC ([11]; rate 0.1250 kg/ha) | herbicidal rating, CYPSE ([13]; rate 0.0320 kg/ha) | herbicidal rating, CYPSE ([13]; rate 0.1250 kg/ha) | Postemergence herbicidal rating, IPOHE ([17]; rate 0.0620 kg/ha)
4.0: ORYSAT preemergence herbicidal rating (ORYSAT (Rice, Tebonnet) [5]; Rate 0.0620 kg/ha) | TRZAWR preemergence herbicidal rating ([6]; Rate 0.1250 kg/ha) | ABUTH preemergence herbicidal rating ([7]; Rate 0.0620 kg/ha) | ABUTH preemergence herbicidal rating ([7]; Rate 0.1250 kg/ha) | Postemergence herbicidal rating, TRZAWR ([8]; rate 0.0620 kg/ha)
0.0: herbicidal rating, SAGPY ([18]; rate 0.0080 kg/ha) | CASOB preemergence herbicidal rating ([2]; Rate 0.0620 kg/ha) | CASOB preemergence herbicidal rating ([2]; Rate 0.1250 kg/ha) | CASOB preemergence herbicidal rating ([2]; Rate 0.2500 kg/ha) | AMBEL preemergence herbicidal rating ([3]; Rate 0.0620 kg/ha) | Postemergence herbicidal rating, ECHCG ([10]; rate 0.0320 kg/ha) | herbicidal rating, ECHORC ([11]; rate 0.0080 kg/ha) | Postemergence herbicidal rating, CASOB ([14]; rate 0.0320 kg/ha) | Postemergence herbicidal rating, AMBEL ([15]; rate 0.0320 kg/ha) | Postemergence herbicidal rating, AMBEL ([15]; rate 0.0620 kg/ha) | Postemergence herbicidal rating, CHEAL ([16]; rate 0.0320 kg/ha)
2.5: Postemergence herbicidal rating, ORYSAT (ORYSAT (Rice, Tebonnet) [12]; rate 0.0320 kg/ha)
5.0: ORYSAT preemergence herbicidal rating (ORYSAT (Rice, Tebonnet) [5]; Rate 0.1250 kg/ha) | TRZAWR preemergence herbicidal rating ([6]; Rate 0.2500 kg/ha) | Postemergence herbicidal rating, ZEAMX (ZEAMX (Corn, Field); rate 0.0320 kg/ha)
7.0: AMBEL preemergence herbicidal rating ([3]; Rate 0.2500 kg/ha) | ORYSAT preemergence herbicidal rating (ORYSAT (Rice, Tebonnet) [5]; Rate 0.2500 kg/ha) | herbicidal rating, ECHORC ([11]; rate 0.0320 kg/ha) | Postemergence herbicidal rating, IPOHE ([17]; rate 0.0320 kg/ha)
5.5: Postemergence herbicidal rating, ZEAMX (ZEAMX (Corn, Field); rate 0.0620 kg/ha)
